Assay results from patent US9765074B2, “Inhibitors of the renal outer medullary potassium channel” (Merck Sharp & Dohme Corp., priority 2013, dated 2017).

Target: T1, hROMK (hKir1.1) (Homo sapiens, UniProt P48048)
T1 construct: expressed in transfected cells
T1 sequence (P48048 1-391): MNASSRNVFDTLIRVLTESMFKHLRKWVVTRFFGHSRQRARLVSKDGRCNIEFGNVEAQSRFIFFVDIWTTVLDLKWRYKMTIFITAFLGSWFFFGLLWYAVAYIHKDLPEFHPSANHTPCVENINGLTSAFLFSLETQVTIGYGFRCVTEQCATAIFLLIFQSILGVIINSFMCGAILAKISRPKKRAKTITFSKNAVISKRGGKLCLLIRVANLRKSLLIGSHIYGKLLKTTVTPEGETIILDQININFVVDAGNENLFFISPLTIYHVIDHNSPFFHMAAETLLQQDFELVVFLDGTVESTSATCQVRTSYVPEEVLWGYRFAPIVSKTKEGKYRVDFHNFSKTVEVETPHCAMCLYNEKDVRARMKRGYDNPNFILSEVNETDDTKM
Assay: Thallium Flux Assay (ROMK channel functional thallium flux, FLIPR-Tetra)
Type: cell-based
Settings: HEK293 cells stably expressing hROMK (hKir1.1); 30 min compound incubation
Method: The following Thallium Flux Assay was performed on each of the final product compounds in the Examples.
Cell Culture Conditions—HEK293 cells stably expressing hROMK (hKir1.1) were grown at 37° C. in a 10% CO2 humidified incubator in complete growth media: Dulbecco's Modified Eagle Medium supplemented with non-essential amino acids, Penicillin/Streptomycin/Glutamine, G418 and FBS. At >80% confluency, aspirate the media from the flask and rinse with 10 mL Calcium/Magnesium-free PBS. Add 5 mL of 1× trypsin (prepared in Ca/Mg Free PBS) to T-225 flask and return flask to 37° C./CO2 incubator for 2-3 minutes. To dislodge the cell, gently bang the side of the flask with your hand. Triturate the cells completely and then transfer the cells to 25 mL complete media. Centrifuge at 1,500 rpm for 6 min followed by resuspension in complete growth media and determine cell concentration. For typical re-seeding, 4E6 cells/T-225 flask will attain >80% confluency in 4 days. Under ideal growth conditions and appropriate tissue culture practices, this cell line is stable for 40-45 passages. FluxOR Kit Components (Invitrogen F10017) • FluxOR™ Reagent (Component A) • FluxOR™ Assay Buffer (Component B)—10× Concentrate • PowerLoad™ Concentrate (Component C)—100× Concentrate • Probenecid (Component D)—Lyophilized sample is kept at −20° C. Water soluble, 100× after solubilization in 1 mL water. Store at 4° C. • FluxOR™ Chloride-free Buffer (Component E)—5× Concentrate • Potassium sulfate (K2SO4) Concentrate (Component F)—125 mM in water. Store at 4° C. • Thallium sulfate (Tl2SO4) Concentrate (Component G)—50 mM in water. Store at 4° C. • DMSO (dimethyl sulfoxide, Component H)—1 mL (100%) Reagent Preparation: FluxOR Working Solutions • 1000× FluxOR™ Reagent: Reconstitute a vial of component A in 100 μl DMSO; Mix well; Store 10 μl aliquots at −20° C. • 1× FluxOR™ Assay Buffer: Dilute Component B 10-fold with water; Adjust pH to 7.4 with Hepes/NaOH; Filter and store at 4° C. • Probenecid/Assay Buffer: 100 mL of 1× FluxOR™ Assay Buffer; 1 mL of reconstituted component D; Store at 4° C. • Loading Buffer (per microplate): 10 μl 1000× FluxOR™ Reagent; 100 μl component C; 10 mL Probenecid/Assay Buffer • Compound Buffer (per microplate): 20 mL Probenecid/Assay Buffer; 0.3 mM ouabain (10 mM ouabain in water can be stored in amber bottle/aluminum foil at room temperature); Test compound • 1× FluxOR™ Chloride-Free Buffer: Prepare 1× working solution in water. Can be stored at room temperature • Stimulant Buffer (prepared at 5× final concentration in 1× FluxOR™ Chloride-Free Buffer): 7.5 mM Thallium sulfate and 0.75 mM Potassium sulfate (to give a final assay concentration of 3 mM Thallium/0.3 mM Potassium). Store at 4° C. when not in use. If kept sterile, this solution is good for months. Assay Protocol—The ROMK channel functional thallium flux assay is performed in 384 wells, using the FLIPR-Tetra instrument. HEK-hKir1.1 cells are seeded in Poly-D-Lysine microplates and kept in a 37° C.-10% CO2 incubator overnight. On the day of the experiment, the growth media is replaced with the FluxOR™ reagent loading buffer and incubated, protected from light, at ambient temperature (23-25° C.) for 90 min. The loading buffer is replaced with assay buffer±test compound followed by 30 min incubation at ambient temperature, where the Thallium/Potassium stimulant is added to the microplate. Step Protocol • 1. Seed HEK-hKir1.1 cells (50 μl at 20,000 cells/well) in 384-well PDL coated Microplates • 2. Allow cells to adhere overnight in humidified 37° C./10% CO2 incubator • 3. Completely remove cell growth media from microplate and replace with 25 μl loading buffer • 4. Incubate Microplate at room temperature, protected form light, for 90 min • 5. Remove loading buffer and replace with 25 μl 1× Assay Buffer±test compound. • 6. Incubate microplate at room temperature, protected from light, for 30 min • 7. At FLIPR-Tetra 384: Add stimulant (Thallium/Potassium) solution to microplate and monitor fluorescence. […]

Structure (SMILES) | IC50
CC1=C(N2CCC3(CCN(C[C@H](O)c4cnc(-n5cnnn5)c(C)n4)CC3)C2=O)COC1=O [Example 87, 8-{(2S)-2-hydroxy-2-[6-methyl-5-(1H-tetrazol-1-yl)pyrazin-2-yl]ethyl}-2-(4-methyl-5-oxo-2,5-dihydrofuran-3-yl)-1-oxo-2-aza-8-azoniaspiro[4.5]decane] | 50 nM
CC1=C(N2CCC3(CCN(C[C@H](O)c4cncc(-n5cnnn5)n4)CC3)C2=O)COC1=O [Example 75, 8-{(2S)-2-hydroxy-2-[6-(1H-tetrazol-1-yl)pyrazin-2-yl]ethyl}-2-(4-methyl-5-oxo-2,5-dihydrofuran-3-yl)-1-oxo-2-aza-8-azoniaspiro[4.5]decane] | 440 nM
CC1=C(N2C(=O)C3(CC2C)CC2CCC(C3)N2C[C@@H](O)c2ccc(-n3cnnn3)nc2)COC1=O (single isomer, unassigned) [Example 134] | 60 nM
CC1CC2(CC3CCC(C2)N3C[C@H](O)c2cnc(-n3cnnn3)cn2)C(=O)N1C1=CC(=O)OC1 (single isomer, unassigned) [Example 91] | 30 nM
CC1=C(N2CCC3(CCN(C[C@H](O)c4nnc(-n5cnnn5)cc4C)CC3)C2=O)COC1=O [Example 121, 8-{(2S)-2-hydroxy-2-[4-methyl-6-(1H-tetrazol-1-yl)pyridazin-3-yl]ethyl}-2-(4-methyl-5-oxo-2,5-dihydrofuran-3-yl)-1-oxo-2-aza-8-azoniaspiro[4.5]decane] | 20 nM
COC1CN(C2=C(C)C(=O)OC2)C(=O)C12CC1CCC(C2)N1C[C@H](O)c1cnc(-n2cnnn2)cn1 (single isomer, unassigned) [Example 162] | 40 nM
CC1=C(N2CCC3(CC4CCC(C3)N4C[C@H](O)c3ccc(-n4cnnn4)cn3)C2=O)COC1=O (stereo partly drawn) [Example 47, (1R,5R)-8-{(2S)-2-hydroxy-2-[5-(1H-tetrazol-1-yl)pyridin-2-yl]ethyl}-1′-(4-methyl-5-oxo-2,5-dihydrofuran-3-yl)-2′-oxospiro[8-azoniabicyclo[3.2.1]octane-3,3′-pyrrolidine]] | 20 nM
CC1=C(N2CCC3(CCN(C[C@@H](O)c4cccc(-n5cnnn5)c4)CC3)C2=O)COC1=O [Example 62, 8-{(2S)-2-hydroxy-2-[3-(1H-tetrazol-1-yl)phenyl]ethyl}-2-(4-methyl-5-oxo-2,5-dihydrofuran-3-yl)-1-oxo-2-aza-8-azoniaspiro[4.5]decane] | 40 nM
COC1CN(C2=CC(=O)OC2)C(=O)C12CCN(C[C@H](O)c1ccc(-n3cnnn3)nc1)CC2 (mixture of isomers) [Example 207, 8-((R)-2-(6-(1H-tetrazol-1-yl)pyridin-3-yl)-2-hydroxyethyl)-4-methoxy-2-(5-oxo-2,5-dihydrofuran-3-yl)-2,8-diazaspiro[4.5]decan-1-one] | 40 nM
Cc1nc(-n2cnnn2)ccc1[C@@H](O)CN1CCC2(CC1)CCN(C1=CC(=O)OC1)C2=O [Example 3, 8-{(2R)-2-hydroxy-2-[2-methyl-6-(1H-tetrazol-1-yl)pyridin-3-yl]ethyl}-1-oxo-2-(5-oxo-2,5-dihydrofuran-3-yl)-2-aza-8-azoniaspiro[4.5]decane] | 20 nM
CC1=C(N2CCC3(CCN(CCc4ncc(-n5cnnn5)nc4C)CC3)C2=O)COC1=O [Example 252, 2-(4-methyl-5-oxo-2,5-dihydrofuran-3-yl)-8-{2-[3-methyl-5-(1H-tetrazol-1-yl)pyrazin-2-yl]ethyl}-2,8-diazaspiro[4.5]decan-1-one] | 10 nM
CC1=C(N2CCC3(CCN(C[C@H](O)c4ncc(-n5cnnn5)nc4C)CC3)C2=O)COC1=O [Example 98, 8-{(2S)-2-hydroxy-2-[3-methyl-5-(1H-tetrazol-1-yl)pyrazin-2-yl]ethyl}-2-(4-methyl-5-oxo-2,5-dihydrofuran-3-yl)-1-oxo-2-aza-8-azoniaspiro[4.5]decane] | 40 nM
CC1=C(N2CCC3(CCN(C[C@@H](O)c4ncc(-n5cnnn5)nc4C)CC3)C2=O)COC1=O [Example 99, 8-{(2R)-2-hydroxy-2-[3-methyl-5-(1H-tetrazol-1-yl)pyrazin-2-yl]ethyl}-2-(4-methyl-5-oxo-2,5-dihydrofuran-3-yl)-1-oxo-2-aza-8-azoniaspiro[4.5]decane] | 50 nM
CC1=C(N2CCC3(CCN(CCc4cnc(-n5cnnn5)cn4)CC3)C2=O)COC1=O [Example 234, 2-(4-methyl-5-oxo-2,5-dihydrofuran-3-yl)-1-oxo-8-{2-[5-(1H-tetrazol-1-yl)pyrazin-2-yl]ethyl}-2-aza-8-azoniaspiro[4.5]decane] | 10 nM
Cc1nc(-n2cnnn2)cnc1CCN1CCC2(CC1)CCN(C1=CC(=O)OC1)C2=O [Example 269, 8-{2-[3-methyl-5-(1H-tetrazol-1-yl)pyrazin-2-yl]ethyl}-2-(5-oxo-2,5-dihydrofuran-3-yl)-2,8-diazaspiro[4.5]decan-1-one] | 20 nM
CC1CC2(CC3CCC(C2)N3C[C@@H](O)c2ccc(-n3cnnn3)nc2)C(=O)N1C1=CC(=O)OC1 (single isomer, unassigned) [Example 101] | 6 nM
CC1=C(N2C(=O)C3(CC2C)CC2CCC(C3)N2C[C@H](O)c2ccc(-n3cnnn3)nc2)COC1=O (single isomer, unassigned) [Example 133] | 10 nM
CC1=CN(C2=C(C)C(=O)OC2)C(=O)C12CCN(CCc1ccc(-n3cnnn3)nn1)CC2 [Example 253, 4-methyl-2-(4-methyl-5-oxo-2,5-dihydrofuran-3-yl)-1-oxo-8-{2-[6-(1H-tetrazol-1-yl)pyridazin-3-yl]ethyl}-2-aza-8-azoniaspiro[4.5]dec-3-ene] | 20 nM
CC1=C(N2CCC3(CC4COCC(C3)N4CCc3ccc(-n4cnnn4)nn3)C2=O)COC1=O [Example 239, (1R,5S,9r)-1′-(4-methyl-5-oxo-2,5-(dihydrofuran-3-yl)-2′-oxo-9-{2-[6-(1H-tetrazol-1-yl)pyridazin-3-yl]ethyl}spiro[7-oxa-9-azoniabicyclo[3.3.1]nonane-3,3′-pyrrolidine]] | 320 nM
CC1=C(N2CCC3(CCN(CCc4ccc(-n5cnnn5)nn4)CC3F)C2=O)COC1=O (single isomer, unassigned) [Example 266, 6-fluoro-2-(4-methyl-5-oxo-2,5-dihydrofuran-3-yl)-8-{2-[6-(1H-tetrazol-1-yl)pyridazin-3-yl]ethyl}-2,8-diazaspiro[4.5]decan-1-one] | 10 nM
COC1CN(C2=C(C)C(=O)OC2)C(=O)C12CCN(C[C@H](O)c1ccc(-n3cnnn3)nc1)CC2 (single isomer, unassigned) [Example 114] | 60 nM
O=C1C=C(N2C(=O)C3(CCN(C[C@H](O)c4ccc(-n5cnnn5)nc4)CC3)CC2C2CC2)CO1 (mixture of isomers) [Example 214, 3-cyclopropyl-8-{(2R)-2-hydroxy-2-[6-(1H-tetrazol-1-yl)pyridin-3-yl]ethyl}-2-(5-oxo-2,5-dihydrofuran-3-yl)-2,8-diazaspiro[4.5]decan-1-one] | 30 nM
